The subject of assay [1] is WT ERα and the A908G ERα mutation. As to the kind of experiment: Saturation binding Scatchard analyses. Set-up: species or system human.
The test system of a further assay is breast cancer. The following applies: patients with a history of ADH receiving tamoxifen (Fisher et al., 1998); cited from earlier work.
Assay [2] deals with MCF-7 breast cancer cells. The assay is described as follows: Cell growth of untransfected parental MCF-7 cells in response to estradiol. The class given is cell-based, human. The following applies: calculated from the growth curves. The protocol:
(§1) The medium was replaced every 48 h and the cells were harvested and counted on days 2, 4, 6, and 8, respectively. Cell number X 10^4 is shown.
(§2) The WT ER expression construct was prepared in the pcDNAI vector as described previously (Fuqua et al., 1995). Site directed mutagenesis of this construct was then utilized to generate the A908G transition and the entire coding sequence of ER was verified by dideoxysequence analysis in this clone. The generation of stable transfectants was performed as described by Oesterreich et al. (1993) using cotransfection with the G418-selectable expression vector pSVneo at a ration of 25:1 with the ER plasmids into MCF-7 breast cancer cells. […] Two to three-fold elevated levels of total ER protein were detected in the two WT ER and the three Var clones. […] Furthermore, the relative levels of WT or Var sequences were determined by genomic sequence analysis as described above; the ER Var transfectants contained both WT nucleotide (A) and Var nucleotide (G) sequence in approximately equal ratios on the sequencing gels.
(§3) The proliferative response to hormones in breast cancer cell transfectants containing the mutation was tested to determine if this ER mutation confers a selective advantage. […] This cell line was chosen because it was determined that WT ERα was expressed along with the mutant in the original 2/4 typical hyperplastic lesions which were examined. […]

The subject of assay [3] is MCF-7 cells stably transfected with the mutant ER (A908G, Lys303Arg). The assay is described as follows: Cell growth of MCF-7 clones stably transfected with the mutant ER in response to estradiol. The assay is classed as cell-based, human. The following applies: cells expressing the ERα mutant, calculated from the growth curves. The protocol:
as §1, §2, §3

Structures are written as SMILES.

Regarding `CC/C(=C(\c1ccccc1)c1ccc(OCCN(C)C)cc1)c1ccccc1` [tamoxifen], the “difference in affinity between WT ERα and the A908G ERα mutation” value in assay [1] is “nor were there differences in affinity”. Moreover, the “decrease in breast cancer incidence” value with breast cancer is 85%.
Regarding `C[C@]12CC[C@@H]3c4ccc(O)cc4CC[C@H]3[C@@H]1CC[C@@H]2O` [estradiol], the doubling time in assay [2] (MCF-7 cells in 10^−9 M estradiol) was 1.3 days; in assay [2] (MCF-7 cells in 10^−12 M estradiol), 2.2 days; in assay [3] (10^−9 M of hormone), 1.3 days; in assay [3] (10^−12 M of hormone), 1.3 days.

The record behind these values is patent publication US7419785B2, “Methods and compositions in breast cancer diagnosis and therapeutics” (Baylor College of Medicine, priority 2001, dated 2008).
